Assay results: ChEMBL document CHEMBL5370547, “NSD3: Advances in cancer therapeutic potential and inhibitors research” (Eur J Med Chem, 2023)
Values belong to the compound of their own block, whether it stands above or below them. Starred links: 1 amine or outer side, 2 acyl side, 3 side chain; linkers in the order of their positions; H or OH if unused. Non-standard residues stand in square brackets, D forms with d. Residues, ends and D or L forms follow the SMILES beside them. X1 = CCC[C@H](C)[C@H](N[*:1])C(=O)[*:2]

Legend:
[1] = target: T1, Histone-lysine N-methyltransferase NSD2 (Homo sapiens, UniProt O96028); assay: Inhibition of human NSD2 overexpressed in Escherichia coli BL21(DE3) using nucleosome as substrate by SPA analysis
T1 sequence (O96028 whole entry): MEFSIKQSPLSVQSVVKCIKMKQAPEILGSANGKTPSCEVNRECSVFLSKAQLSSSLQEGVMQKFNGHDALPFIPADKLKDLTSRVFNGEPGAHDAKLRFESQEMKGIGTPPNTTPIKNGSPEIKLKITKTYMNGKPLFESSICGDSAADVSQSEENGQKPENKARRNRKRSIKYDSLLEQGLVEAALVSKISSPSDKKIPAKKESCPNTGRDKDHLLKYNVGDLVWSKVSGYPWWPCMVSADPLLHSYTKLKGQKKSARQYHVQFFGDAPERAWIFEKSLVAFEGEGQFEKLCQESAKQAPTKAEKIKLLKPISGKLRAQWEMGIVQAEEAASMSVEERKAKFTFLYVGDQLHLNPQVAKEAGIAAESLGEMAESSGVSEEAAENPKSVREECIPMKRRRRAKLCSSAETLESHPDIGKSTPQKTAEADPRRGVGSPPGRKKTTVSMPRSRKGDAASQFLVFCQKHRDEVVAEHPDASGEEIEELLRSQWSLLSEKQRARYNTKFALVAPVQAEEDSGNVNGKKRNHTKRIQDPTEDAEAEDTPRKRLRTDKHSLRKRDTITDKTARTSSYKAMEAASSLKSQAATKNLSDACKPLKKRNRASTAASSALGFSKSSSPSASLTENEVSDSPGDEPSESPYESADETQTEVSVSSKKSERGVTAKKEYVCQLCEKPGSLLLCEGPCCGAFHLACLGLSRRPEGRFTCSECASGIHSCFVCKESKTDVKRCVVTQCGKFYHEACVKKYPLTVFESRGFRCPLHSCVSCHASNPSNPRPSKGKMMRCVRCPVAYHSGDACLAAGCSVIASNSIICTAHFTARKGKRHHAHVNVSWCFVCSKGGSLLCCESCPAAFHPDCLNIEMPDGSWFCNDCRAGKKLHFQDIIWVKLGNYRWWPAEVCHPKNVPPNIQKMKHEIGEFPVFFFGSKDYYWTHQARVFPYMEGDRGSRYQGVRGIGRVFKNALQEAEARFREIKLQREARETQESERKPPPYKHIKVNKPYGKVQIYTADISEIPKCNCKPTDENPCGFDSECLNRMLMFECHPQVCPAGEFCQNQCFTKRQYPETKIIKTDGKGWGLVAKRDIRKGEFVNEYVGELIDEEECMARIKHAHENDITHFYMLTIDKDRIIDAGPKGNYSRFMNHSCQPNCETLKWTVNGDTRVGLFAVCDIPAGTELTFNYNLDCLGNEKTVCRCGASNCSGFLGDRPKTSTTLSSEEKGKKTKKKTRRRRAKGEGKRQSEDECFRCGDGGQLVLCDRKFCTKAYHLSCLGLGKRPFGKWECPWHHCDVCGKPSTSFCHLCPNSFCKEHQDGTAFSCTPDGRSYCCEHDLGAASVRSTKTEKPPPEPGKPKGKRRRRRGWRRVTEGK

[2] = target: T2, Histone-lysine N-methyltransferase NSD3 (Homo sapiens, UniProt Q9BZ95); assay: Inhibition of human NSD3 overexpressed in Escherichia coli BL21(DE3) using nucleosome as substrate by SPA analysis
T2 sequence (Q9BZ95 whole entry): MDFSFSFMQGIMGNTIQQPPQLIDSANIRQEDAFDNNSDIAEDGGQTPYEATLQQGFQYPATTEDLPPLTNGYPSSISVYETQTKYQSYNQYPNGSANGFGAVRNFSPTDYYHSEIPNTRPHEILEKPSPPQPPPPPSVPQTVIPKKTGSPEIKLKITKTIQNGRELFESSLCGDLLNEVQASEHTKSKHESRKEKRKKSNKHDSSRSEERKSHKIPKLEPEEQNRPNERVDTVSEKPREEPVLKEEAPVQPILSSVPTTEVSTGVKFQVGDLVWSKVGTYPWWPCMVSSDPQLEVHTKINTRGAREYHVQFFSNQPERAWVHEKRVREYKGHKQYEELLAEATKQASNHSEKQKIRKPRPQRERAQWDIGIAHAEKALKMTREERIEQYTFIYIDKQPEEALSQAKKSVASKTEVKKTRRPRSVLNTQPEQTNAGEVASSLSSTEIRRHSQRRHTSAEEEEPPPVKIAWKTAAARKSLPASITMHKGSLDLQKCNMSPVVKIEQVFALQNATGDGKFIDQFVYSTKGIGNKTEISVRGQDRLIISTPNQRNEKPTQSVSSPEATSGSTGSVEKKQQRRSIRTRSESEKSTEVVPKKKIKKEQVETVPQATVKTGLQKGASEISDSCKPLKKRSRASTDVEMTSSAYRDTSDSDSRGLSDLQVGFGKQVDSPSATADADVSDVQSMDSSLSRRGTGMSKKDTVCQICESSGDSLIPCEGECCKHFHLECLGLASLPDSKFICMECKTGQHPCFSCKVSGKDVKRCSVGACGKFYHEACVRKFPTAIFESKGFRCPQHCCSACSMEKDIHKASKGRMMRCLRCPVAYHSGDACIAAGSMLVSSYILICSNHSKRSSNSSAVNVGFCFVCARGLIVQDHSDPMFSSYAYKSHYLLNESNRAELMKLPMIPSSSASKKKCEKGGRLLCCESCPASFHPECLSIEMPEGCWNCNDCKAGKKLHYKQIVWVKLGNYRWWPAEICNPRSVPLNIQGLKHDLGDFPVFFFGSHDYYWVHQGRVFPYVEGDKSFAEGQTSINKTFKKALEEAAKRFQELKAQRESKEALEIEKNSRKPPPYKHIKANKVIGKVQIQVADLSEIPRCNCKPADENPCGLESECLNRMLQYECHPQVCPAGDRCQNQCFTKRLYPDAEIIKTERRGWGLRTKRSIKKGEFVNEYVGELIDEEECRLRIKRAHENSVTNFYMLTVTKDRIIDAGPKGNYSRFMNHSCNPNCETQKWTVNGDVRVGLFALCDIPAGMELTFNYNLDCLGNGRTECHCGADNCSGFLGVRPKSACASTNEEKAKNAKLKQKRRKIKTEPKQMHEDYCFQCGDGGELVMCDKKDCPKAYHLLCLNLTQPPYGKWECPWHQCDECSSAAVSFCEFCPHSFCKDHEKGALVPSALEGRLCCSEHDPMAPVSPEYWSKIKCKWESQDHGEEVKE

[3] = target: T2, Histone-lysine N-methyltransferase NSD3; assay: Inhibition of N-terminal GST-fused recombinant human NSD3 (1021 to 1322 residues) expressed in Escherichia coli using SAM as substrate preincubated for 20 mins followed by substrate addition measured after 1 hrs by hotspot assay
[4] = target: T3, Histone-lysine N-methyltransferase, H3 lysine-36 specific (Homo sapiens, UniProt Q96L73); assay: Inhibition of human NSD1 overexpressed in Escherichia coli BL21(DE3) using nucleosome as substrate by SPA analysis
T3 sequence (Q96L73 whole entry, the tested form may be a part): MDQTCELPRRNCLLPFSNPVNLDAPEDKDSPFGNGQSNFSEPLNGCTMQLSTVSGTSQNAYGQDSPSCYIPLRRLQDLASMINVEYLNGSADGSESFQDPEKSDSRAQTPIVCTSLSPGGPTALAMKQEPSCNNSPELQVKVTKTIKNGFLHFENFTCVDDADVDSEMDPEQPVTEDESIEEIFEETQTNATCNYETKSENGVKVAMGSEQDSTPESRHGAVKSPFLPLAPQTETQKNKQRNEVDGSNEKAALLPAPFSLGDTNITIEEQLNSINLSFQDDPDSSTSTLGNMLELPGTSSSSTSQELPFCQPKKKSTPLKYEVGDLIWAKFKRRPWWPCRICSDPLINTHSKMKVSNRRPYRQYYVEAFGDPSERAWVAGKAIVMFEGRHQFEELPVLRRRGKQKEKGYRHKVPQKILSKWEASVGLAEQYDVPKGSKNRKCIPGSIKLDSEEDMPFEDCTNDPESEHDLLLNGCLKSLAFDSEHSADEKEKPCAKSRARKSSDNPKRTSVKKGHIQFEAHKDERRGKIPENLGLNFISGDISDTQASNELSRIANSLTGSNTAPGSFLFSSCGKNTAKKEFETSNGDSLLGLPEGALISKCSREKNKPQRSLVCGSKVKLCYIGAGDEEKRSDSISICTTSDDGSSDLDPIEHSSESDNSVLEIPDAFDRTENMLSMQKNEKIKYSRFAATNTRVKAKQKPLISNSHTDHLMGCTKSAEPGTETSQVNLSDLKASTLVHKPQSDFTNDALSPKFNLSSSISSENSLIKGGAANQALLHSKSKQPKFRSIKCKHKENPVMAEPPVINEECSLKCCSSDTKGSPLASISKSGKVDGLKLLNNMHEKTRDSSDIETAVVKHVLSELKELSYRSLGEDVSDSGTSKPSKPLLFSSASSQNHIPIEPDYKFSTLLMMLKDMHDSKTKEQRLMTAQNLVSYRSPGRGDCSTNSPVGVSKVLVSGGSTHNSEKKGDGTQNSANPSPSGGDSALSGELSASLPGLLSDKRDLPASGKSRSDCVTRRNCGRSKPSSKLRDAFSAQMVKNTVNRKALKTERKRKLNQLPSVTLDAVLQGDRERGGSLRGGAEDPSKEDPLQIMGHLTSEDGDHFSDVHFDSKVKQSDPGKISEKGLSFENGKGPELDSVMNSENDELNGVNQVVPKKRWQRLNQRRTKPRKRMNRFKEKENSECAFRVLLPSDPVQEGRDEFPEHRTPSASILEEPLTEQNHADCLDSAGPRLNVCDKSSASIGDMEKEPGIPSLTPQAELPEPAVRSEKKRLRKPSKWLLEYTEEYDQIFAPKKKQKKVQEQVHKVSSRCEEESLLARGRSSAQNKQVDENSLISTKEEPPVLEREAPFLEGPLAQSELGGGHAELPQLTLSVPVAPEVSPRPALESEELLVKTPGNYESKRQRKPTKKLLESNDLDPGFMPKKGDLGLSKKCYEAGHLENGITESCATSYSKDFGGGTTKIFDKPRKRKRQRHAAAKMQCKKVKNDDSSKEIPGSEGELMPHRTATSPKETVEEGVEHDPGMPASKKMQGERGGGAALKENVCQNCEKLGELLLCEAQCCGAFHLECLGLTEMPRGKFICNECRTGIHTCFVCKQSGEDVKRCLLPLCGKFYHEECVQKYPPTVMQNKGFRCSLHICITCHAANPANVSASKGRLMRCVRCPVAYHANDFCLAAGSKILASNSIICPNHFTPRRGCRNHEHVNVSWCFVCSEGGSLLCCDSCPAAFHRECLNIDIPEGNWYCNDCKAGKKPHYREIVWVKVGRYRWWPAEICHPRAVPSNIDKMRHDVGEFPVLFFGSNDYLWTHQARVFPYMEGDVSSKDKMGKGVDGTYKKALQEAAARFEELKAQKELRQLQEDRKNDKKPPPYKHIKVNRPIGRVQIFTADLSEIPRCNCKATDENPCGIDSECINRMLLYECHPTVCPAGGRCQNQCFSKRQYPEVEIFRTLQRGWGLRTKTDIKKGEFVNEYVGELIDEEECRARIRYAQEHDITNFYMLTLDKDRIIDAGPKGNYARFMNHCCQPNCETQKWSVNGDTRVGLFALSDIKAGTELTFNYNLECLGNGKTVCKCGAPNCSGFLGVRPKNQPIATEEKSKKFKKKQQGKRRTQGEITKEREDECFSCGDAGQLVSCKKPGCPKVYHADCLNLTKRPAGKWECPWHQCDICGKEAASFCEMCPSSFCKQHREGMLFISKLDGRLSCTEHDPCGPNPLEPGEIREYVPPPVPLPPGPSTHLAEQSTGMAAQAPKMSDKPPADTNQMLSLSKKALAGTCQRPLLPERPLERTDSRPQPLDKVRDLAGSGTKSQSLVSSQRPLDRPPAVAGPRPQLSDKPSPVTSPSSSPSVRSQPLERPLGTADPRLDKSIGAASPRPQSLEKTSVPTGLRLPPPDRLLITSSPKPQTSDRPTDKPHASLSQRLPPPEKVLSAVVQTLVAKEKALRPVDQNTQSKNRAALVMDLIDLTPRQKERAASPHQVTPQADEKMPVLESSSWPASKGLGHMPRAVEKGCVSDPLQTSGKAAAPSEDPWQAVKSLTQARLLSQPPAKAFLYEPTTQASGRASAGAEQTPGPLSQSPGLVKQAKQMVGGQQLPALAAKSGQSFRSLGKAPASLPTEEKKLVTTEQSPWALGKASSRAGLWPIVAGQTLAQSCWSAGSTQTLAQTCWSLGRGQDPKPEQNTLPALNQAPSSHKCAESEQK

[5] = target: T3, Histone-lysine N-methyltransferase, H3 lysine-36 specific; assay: Inhibition of N-terminal polyhistidine-tagged recombinant human NSD1 (1538 to 2696 residues) expressed in baculovirus infected insect cell using SAM as substrate preincubated for 20 mins followed by substrate addition measured after 1 hrs by hotspot assay
[6] = target: T2, Histone-lysine N-methyltransferase NSD3; assay: Inhibition of NSD3 PWWP1 domain (unknown origin) by TR-FRET assay
[7] = target: T2, Histone-lysine N-methyltransferase NSD3; assay: Inhibition of NSD3 PWWP1 domain (unknown origin) assessed as […] by SPR analysis
[8] = Inhibition of C-terminal NanoLuc-tagged human NSD3 PWWP1 domain/ C-terminal HaloTag fused histone H3 (unknown origin) interaction transfected in human U2OS cells; type: cell-based
MOLM-13 [9] = assay: Antiproliferative activity against human MOLM-13 cells assessed as cell growth inhibition measured after 6 days in presence of JQ1 by RealTime-Glow MT cell viability assay; type: functional, cell-based; conditions: MOLM-13, 144 h
MOLM-13 [10] = assay: Antiproliferative activity against human MOLM-13 cells assessed as cell growth inhibition measured after 6 days by RealTime-Glow MT cell viability assay; type: functional, cell-based; conditions: MOLM-13, 144 h
[11] = Antiproliferative activity against human RN 22 cells assessed as cell growth inhibition measured after 6 days by RealTime-Glow MT cell viability assay; type: functional, cell-based; conditions: RN 22, 144 h
[12] = target: T2, Histone-lysine N-methyltransferase NSD3; assay: Inhibition of N-terminal His-TEV-tagged human NSD3 (1054 to 1285 residues ) expressed in Escherichia coli using 3[H] SAM as substrate measured after 30 mins by biochemical assay
[13] = target: T1, Histone-lysine N-methyltransferase NSD2; assay: Inhibition of N-terminal GST-tagged human NSD2 (941 to 1240 residues ) expressed in Escherichia coli using 3[H] SAM as substrate measured after 30 mins by biochemical assay
[14] = target: T2, Histone-lysine N-methyltransferase NSD3; assay: Binding affinity to human NSD3 […] domain (247 to 402 residues) expressed in Escherichia coli assessed as dissociation constant
EOL1 = assay: Antiproliferative activity against human EOL1 cells assessed as cell growth inhibition measured after 8 days; type: functional, cell-based; conditions: EOL1, 192 h
RS4-11 = assay: Antiproliferative activity against human RS4-11 cells assessed as cell growth inhibition measured after 8 days; type: functional, cell-based; conditions: RS4-11, 192 h
MM1.S = assay: Antiproliferative activity against human MM1.S cells assessed as cell growth inhibition measured after 8 days; type: functional, cell-based; conditions: 192 h
[15] = target: von Hippel-Lindau disease tumor suppressor/Histone-lysine N-methyltransferase NSD3 (Homo sapiens, UniProt P40337+Q9BZ95); assay: PROTAC activity at VHL/NSD3 […] domain in human MOLM-13 cells assessed as […] measured after 48 hrs by immunoblotting analysis; type: cell-based
Sequence of von Hippel-Lindau disease tumor suppressor/Histone-lysine N-methyltransferase NSD3 (P40337 whole entry, one chain of several): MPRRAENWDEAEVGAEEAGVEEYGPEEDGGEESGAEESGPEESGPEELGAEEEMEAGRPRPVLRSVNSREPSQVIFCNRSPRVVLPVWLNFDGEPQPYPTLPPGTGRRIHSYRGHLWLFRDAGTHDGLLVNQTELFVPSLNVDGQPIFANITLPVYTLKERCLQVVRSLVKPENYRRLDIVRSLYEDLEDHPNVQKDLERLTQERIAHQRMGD

- IC50 [1]: 21 µM
- IC50 [2]: 12 µM
Compound: Cc1ccc(C(=O)Nc2ccc(S(=O)(=O)O)c3cc(S(=O)(=O)O)cc(S(=O)(=O)O)c23)cc1NC(=O)c1cccc(NC(=O)Nc2cccc(C(=O)Nc3cc(C(=O)Nc4ccc(S(=O)(=O)O)c5cc(S(=O)(=O)O)cc(S(=O)(=O)O)c45)ccc3C)c2)c1 [SURAMIN]

Compound: CN1C(=O)[C@@]23C[C@]4([C@]56C[C@@]78SS[C@@](CO)(C(=O)N7[C@H]5Nc5ccccc56)N(C)C8=O)c5ccccc5N[C@@H]4N2C(=O)[C@]1(CO)SS3 [CHAETOCIN]
- IC50 [3]: 3.2 µM
- IC50 [1]: 6 µM
- IC50 [4]: 16 µM
- IC50 [2]: 11 µM

- IC50 [3]: 0.26 µM
- IC50 [5]: 0.11 µM
Compound: O=C1C(Cl)=C(NCCN2CCOCC2)C(=O)c2ncccc21

- IC50 [6]: 1.9 µM
- Kd [7]: 6.8 µM
Compound: Cc1noc(C)c1-c1ncn(C)c1-c1ccnc2cc(F)ccc12

- IC50 [8]: 1.2 µM
- IC50 (MOLM-13 [9]): 0.139 µM
- IC50 (MOLM-13 [10]): 26.8 µM
Compound: Cc1cc(CN)cc(C)c1-c1ncn(C)c1-c1ccnc2cc(F)ccc12
- IC50 [11]: 13 µM

- IC50 [6]: 5.2 µM
- Kd [7]: 9.7 µM
Compound: Cc1cc(CN)cc(C)c1-c1ncn(C)c1-c1ccncc1

- IC50 [4]: 46 µM
Compound: Nc1ncnc2c1ncn2[C@@H]1O[C@H](C[C@@H](N)CC[C@H](N)C(=O)O)[C@@H](O)[C@H]1O [SINEFUNGIN]

- IC50 [12]: 3.2 µM
- IC50 [13]: 22 µM
Compound: CCC[C@H](C)[C@H](NC(=O)[C@@H](NC(=O)CNC(C)=O)C(C)C)C(=O)N[C@@H](CCCNC(=N)N)C(=O)N[C@H](C(N)=O)[C@@H](C)CC (Ac-GV[X1]RI-NH2)

- Kd [14]: 1.3 µM
- EC50 (RS4-11): 3.5 µM
- EC50 (MM1.S): 3.3 µM
- EC50 [15]: 4.9 µM
Compound: Cc1cc(CNCCCC(=O)NCCCCCCCCC(=O)N[C@H](C(=O)N2C[C@@H](O)C[C@@H]2C(=O)N[C@H](C)c2ccc(-c3scnc3C)cc2)C(C)(C)C)cc(C)c1-c1ncn(C)c1-c1ccnc2cc(F)ccc12
- EC50 (EOL1): 2.3 µM
